Columns and labels:
Experiment in all cases: KINOMEscan
Format in all cases: binding
Details in all cases: read-out: % control activity remaining
[1] = target: T1, BRSK2 (Homo sapiens, UniProt Q8IWQ3)
T1 construct: purchased Eurofins DiscoverX KINOMEscan
T1 sequence (Q8IWQ3 1-736): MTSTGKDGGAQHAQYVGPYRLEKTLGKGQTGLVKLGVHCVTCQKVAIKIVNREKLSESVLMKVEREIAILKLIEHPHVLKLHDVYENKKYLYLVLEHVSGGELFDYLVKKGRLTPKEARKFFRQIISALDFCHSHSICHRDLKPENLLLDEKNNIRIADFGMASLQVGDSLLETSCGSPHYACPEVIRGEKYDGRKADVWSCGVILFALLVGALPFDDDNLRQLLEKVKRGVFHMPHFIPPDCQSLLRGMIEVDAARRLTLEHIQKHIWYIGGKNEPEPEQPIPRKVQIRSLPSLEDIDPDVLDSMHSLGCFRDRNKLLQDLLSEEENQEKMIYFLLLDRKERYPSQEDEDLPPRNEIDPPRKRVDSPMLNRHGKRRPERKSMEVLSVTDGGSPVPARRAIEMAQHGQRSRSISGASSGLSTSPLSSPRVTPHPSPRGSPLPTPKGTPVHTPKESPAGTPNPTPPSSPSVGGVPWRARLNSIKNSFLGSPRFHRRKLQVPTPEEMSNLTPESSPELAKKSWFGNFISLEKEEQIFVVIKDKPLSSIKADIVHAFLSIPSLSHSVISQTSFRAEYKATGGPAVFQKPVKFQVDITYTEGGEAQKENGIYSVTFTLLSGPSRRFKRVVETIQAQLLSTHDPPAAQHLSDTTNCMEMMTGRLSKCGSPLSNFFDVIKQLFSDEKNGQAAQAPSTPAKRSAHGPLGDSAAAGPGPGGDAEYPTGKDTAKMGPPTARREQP

[2] = target: T2, PRKX (Homo sapiens, UniProt P51817)
T2 construct: purchased Eurofins DiscoverX KINOMEscan
T2 sequence (P51817 1-358): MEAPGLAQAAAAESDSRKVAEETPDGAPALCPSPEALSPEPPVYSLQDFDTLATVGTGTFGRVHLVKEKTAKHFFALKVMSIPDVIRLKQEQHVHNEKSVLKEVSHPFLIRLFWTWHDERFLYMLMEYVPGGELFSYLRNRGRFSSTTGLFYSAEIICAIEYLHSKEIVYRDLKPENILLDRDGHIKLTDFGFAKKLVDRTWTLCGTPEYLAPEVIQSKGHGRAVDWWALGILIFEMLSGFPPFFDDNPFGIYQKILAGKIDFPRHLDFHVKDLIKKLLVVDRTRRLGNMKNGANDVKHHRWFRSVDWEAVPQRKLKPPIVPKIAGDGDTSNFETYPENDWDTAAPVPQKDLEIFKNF

[3] = target: T3, AKT1 (Homo sapiens, UniProt P31749)
T3 construct: purchased Eurofins DiscoverX KINOMEscan
T3 sequence (P31749 whole entry): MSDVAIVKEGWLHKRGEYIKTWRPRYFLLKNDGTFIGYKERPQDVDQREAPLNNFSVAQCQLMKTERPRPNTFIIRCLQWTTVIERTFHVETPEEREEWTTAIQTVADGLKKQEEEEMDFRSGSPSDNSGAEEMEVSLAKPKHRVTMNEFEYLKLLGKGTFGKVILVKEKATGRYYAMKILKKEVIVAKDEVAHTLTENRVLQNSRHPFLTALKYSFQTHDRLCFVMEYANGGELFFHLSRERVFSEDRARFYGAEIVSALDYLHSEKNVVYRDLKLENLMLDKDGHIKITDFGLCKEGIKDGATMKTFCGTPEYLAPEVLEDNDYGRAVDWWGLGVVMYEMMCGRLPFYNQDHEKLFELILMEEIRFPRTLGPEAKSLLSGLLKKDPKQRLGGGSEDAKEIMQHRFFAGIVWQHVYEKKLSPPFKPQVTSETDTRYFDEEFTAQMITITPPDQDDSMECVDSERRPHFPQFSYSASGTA

[4] = target: T4, BUB1 (Homo sapiens, UniProt O43683)
T4 construct: purchased Eurofins DiscoverX KINOMEscan
T4 sequence (O43683 whole entry): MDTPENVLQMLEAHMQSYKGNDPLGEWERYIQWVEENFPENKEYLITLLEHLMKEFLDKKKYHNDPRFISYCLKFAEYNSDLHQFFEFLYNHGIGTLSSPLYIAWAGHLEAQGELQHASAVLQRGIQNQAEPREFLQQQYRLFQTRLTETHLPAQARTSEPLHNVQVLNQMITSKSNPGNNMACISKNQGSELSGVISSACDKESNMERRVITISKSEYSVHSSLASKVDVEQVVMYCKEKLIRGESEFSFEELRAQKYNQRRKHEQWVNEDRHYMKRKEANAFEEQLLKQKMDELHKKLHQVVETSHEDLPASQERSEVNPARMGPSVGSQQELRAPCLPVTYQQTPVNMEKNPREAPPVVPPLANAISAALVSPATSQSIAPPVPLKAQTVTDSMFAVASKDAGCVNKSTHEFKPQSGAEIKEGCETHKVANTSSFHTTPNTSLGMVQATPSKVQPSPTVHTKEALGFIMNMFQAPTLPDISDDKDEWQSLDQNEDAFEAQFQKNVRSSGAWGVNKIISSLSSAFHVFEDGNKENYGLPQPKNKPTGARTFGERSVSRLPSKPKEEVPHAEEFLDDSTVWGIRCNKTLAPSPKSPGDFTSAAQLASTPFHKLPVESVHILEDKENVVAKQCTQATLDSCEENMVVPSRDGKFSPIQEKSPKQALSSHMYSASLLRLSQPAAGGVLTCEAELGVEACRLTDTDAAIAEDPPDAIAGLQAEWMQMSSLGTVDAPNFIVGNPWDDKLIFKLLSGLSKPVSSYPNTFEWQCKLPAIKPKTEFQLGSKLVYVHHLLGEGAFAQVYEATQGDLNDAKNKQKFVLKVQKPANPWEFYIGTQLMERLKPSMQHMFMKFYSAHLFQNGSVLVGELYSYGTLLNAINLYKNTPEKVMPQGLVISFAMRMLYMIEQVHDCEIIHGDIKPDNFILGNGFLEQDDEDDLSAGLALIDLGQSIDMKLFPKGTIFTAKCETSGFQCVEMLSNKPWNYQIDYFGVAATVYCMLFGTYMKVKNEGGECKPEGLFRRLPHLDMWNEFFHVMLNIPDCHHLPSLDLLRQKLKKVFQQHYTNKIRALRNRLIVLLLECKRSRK

[5] = target: T5, ACVRL1 (Homo sapiens, UniProt P37023)
T5 construct: purchased Eurofins DiscoverX KINOMEscan
T5 sequence (P37023 22-503): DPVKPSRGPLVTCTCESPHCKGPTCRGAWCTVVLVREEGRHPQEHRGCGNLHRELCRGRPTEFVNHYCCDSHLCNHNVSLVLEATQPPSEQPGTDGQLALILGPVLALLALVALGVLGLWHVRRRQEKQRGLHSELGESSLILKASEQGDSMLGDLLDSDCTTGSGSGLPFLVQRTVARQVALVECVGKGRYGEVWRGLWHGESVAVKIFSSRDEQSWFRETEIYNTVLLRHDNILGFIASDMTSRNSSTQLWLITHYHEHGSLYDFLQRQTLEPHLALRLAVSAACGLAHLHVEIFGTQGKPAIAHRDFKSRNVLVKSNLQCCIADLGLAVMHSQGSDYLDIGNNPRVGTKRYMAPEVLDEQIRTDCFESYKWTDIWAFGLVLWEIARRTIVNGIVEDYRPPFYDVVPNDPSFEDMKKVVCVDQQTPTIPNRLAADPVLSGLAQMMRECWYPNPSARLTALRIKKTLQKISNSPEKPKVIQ

[6] = target: T6, MYLK4 (Homo sapiens, UniProt Q86YV6)
T6 construct: purchased Eurofins DiscoverX KINOMEscan
T6 sequence (Q86YV6 1-388): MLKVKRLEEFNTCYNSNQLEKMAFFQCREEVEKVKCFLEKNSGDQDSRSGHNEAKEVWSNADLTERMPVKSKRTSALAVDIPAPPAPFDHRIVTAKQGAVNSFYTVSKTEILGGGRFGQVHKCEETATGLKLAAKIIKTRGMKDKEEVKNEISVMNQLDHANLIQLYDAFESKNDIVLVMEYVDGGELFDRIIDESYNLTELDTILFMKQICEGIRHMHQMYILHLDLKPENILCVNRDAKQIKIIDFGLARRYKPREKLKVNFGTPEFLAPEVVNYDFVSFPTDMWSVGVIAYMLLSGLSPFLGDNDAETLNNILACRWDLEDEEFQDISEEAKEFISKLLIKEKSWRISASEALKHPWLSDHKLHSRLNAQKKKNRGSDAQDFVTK

[7] = target: T7, LCK (Homo sapiens, UniProt P06239)
T7 construct: purchased Eurofins DiscoverX KINOMEscan
T7 sequence (P06239 whole entry): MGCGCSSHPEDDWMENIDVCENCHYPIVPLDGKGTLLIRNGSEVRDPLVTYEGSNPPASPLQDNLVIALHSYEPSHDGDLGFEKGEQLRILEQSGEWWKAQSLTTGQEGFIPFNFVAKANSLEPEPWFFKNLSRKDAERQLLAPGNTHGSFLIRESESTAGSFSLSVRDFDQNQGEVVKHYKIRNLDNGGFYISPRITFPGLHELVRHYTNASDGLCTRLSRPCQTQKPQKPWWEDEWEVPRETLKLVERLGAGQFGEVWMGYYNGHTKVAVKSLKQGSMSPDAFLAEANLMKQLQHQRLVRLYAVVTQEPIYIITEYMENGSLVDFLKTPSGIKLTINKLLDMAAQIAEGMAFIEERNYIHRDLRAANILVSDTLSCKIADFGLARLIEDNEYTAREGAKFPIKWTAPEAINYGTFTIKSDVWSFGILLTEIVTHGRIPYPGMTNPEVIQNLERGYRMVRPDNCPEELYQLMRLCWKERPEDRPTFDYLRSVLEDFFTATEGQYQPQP

[8] = target: T8, TLK1 (Homo sapiens, UniProt Q9UKI8)
T8 construct: purchased Eurofins DiscoverX KINOMEscan
T8 sequence (Q9UKI8 1-766): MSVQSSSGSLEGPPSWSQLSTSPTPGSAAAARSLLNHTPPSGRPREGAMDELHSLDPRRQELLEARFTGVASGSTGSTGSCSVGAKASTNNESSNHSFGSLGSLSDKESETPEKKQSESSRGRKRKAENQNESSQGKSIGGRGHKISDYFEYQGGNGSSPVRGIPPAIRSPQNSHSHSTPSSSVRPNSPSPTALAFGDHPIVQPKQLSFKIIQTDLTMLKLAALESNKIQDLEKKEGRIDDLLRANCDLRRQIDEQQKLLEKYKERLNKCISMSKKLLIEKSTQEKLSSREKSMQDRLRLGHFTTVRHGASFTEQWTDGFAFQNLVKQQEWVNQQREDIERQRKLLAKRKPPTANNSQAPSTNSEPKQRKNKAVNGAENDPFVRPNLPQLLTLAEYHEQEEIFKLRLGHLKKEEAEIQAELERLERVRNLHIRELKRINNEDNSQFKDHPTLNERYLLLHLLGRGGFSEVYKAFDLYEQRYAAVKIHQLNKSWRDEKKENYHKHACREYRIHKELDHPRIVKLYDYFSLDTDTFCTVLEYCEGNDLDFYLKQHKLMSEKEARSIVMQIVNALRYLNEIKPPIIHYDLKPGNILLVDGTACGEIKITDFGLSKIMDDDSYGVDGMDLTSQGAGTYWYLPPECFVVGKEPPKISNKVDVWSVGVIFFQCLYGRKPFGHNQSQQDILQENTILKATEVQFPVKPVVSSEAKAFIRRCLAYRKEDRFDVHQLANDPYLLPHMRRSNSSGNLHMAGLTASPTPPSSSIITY

[9] = target: T9, MAP4K4 (Homo sapiens, UniProt O95819)
T9 construct: purchased Eurofins DiscoverX KINOMEscan
T9 sequence (O95819 whole entry): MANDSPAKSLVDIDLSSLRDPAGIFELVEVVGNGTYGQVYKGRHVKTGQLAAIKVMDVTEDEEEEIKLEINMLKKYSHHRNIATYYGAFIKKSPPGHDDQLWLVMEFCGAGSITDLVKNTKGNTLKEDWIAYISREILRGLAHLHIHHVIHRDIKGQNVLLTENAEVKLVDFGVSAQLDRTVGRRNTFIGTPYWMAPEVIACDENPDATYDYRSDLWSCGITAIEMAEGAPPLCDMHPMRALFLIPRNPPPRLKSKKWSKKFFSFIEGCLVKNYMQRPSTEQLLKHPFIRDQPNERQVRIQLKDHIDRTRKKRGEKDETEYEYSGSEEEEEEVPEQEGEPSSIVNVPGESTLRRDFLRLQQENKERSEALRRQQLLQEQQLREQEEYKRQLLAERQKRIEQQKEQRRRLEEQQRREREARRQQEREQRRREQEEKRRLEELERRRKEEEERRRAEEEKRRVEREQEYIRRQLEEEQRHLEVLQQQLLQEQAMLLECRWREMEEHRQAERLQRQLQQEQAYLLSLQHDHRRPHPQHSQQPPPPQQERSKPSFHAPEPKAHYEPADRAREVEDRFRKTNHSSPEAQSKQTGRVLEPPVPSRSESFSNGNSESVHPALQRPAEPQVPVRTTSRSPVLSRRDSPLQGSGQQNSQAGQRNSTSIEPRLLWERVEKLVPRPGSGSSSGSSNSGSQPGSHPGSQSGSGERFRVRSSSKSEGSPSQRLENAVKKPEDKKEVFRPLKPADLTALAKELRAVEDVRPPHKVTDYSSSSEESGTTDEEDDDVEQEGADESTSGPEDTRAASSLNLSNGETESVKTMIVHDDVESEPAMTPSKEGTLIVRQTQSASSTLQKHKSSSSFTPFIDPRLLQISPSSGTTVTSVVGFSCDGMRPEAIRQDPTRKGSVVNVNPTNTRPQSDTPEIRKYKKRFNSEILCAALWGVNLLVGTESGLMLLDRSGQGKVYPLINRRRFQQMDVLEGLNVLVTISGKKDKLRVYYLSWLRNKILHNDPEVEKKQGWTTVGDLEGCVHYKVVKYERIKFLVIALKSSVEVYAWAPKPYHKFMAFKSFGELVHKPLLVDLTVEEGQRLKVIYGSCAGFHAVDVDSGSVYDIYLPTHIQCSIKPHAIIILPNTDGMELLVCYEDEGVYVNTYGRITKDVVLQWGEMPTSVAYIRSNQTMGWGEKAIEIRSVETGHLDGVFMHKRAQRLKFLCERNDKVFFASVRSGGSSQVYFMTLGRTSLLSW

Clc1cc(NCC2CC2)c2ncc(-c3ccc4[nH]ncc4c3)n2n1 [compound 2, 6-Chloro-N-(cyclopropylmethyl)-3-(1H-indazol-5-yl)imidazo[1,2-b]pyridazin-8-amine]
remaining binding at 1 µM [1]: 100%
remaining binding at 1 µM [2]: 91%
remaining binding at 1 µM [3]: 98%
remaining binding at 1 µM [4]: 83%
remaining binding at 1 µM [5]: 98%
remaining binding at 1 µM [6]: 67%
remaining binding at 1 µM [7]: 100%
remaining binding at 1 µM [8]: 96%
remaining binding at 1 µM [9]: 92%

O=C(CN1CCOCC1)N[C@H]1CC[C@H](Nc2cc(Cl)nn3c(-c4ccc5[nH]ncc5c4)cnc23)CC1 [compound 26]
remaining binding at 1 µM [1]: 98%
remaining binding at 1 µM [2]: 80%
remaining binding at 1 µM [3]: 100%
remaining binding at 1 µM [4]: 58%
remaining binding at 1 µM [5]: 100%
remaining binding at 1 µM [6]: 24%
remaining binding at 1 µM [7]: 87%
remaining binding at 1 µM [8]: 87%
remaining binding at 1 µM [9]: 75%

CN1CCC(CNc2cc(Cl)nn3c(-c4cc5nc(Nc6ccccc6)[nH]c5cc4F)cnc23)CC1 [compound 31, 6-Chloro-3-(6-fluoro-2-(phenylamino)-1H-benzo[d]imidazol-5-yl)-N-((1-methylpiperidin-4-yl)methyl)imidazo[1,2-b]pyridazin-8-amine]
remaining binding at 1 µM [1]: 84%
remaining binding at 1 µM [2]: 100%
remaining binding at 1 µM [3]: 100%
remaining binding at 1 µM [4]: 59%
remaining binding at 1 µM [5]: 100%
remaining binding at 1 µM [6]: 91%
remaining binding at 1 µM [7]: 82%
remaining binding at 1 µM [8]: 93%
remaining binding at 1 µM [9]: 100%

From PMC6437697 (Journal of Medicinal Chemistry, 2019)
